These results are taken from patent publication US10369153B2, “Pyrrolopyrimidine compounds and uses thereof” (HUTCHISON MEDIPHARMA LIMITED, priority 2010, dated 2019).

In test [1] the target is Recombinant human JAK1 catalytic domain (Homo sapiens (Human), UniProt P23458). Briefly: JAK1 kinase assay (Z'-LYTE, Tyr 6 Peptide). Type of test: biochemical. To be noted: 0.3 uM concentration, read-out: inhibition percentage (IR %). The procedure: JAK1/2/3 kinase assay are performed in vitro using Kit-Tyr 6 Peptide (Invitrogen, Cat. No. PV4122). TYK2 kinase assay are performed in vitro using Z′-LYTE™ Kinase Assay Kit-Tyr 3 Peptide (Invitrogen, Cat. No. PV3192). […] All compounds are initially tested at 8 different concentrations (1 μM down to 0.0003 μM) using a 1:3 serial dilution scheme.
Chain of Recombinant human JAK1 catalytic domain (P23458 875-1153): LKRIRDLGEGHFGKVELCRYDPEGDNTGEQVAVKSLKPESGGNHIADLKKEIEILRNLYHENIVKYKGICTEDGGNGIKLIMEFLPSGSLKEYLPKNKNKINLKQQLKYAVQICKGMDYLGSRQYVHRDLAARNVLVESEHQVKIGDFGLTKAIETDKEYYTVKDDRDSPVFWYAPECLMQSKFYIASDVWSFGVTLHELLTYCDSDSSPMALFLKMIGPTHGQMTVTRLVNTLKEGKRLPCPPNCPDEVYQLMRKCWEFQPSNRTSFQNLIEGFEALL

For test [2], the system named is IL-6-induced STAT3 phosphorylation. Briefly: IL-6-induced STAT3 phosphorylation in HepG2 cells. Type of test: cell-based. The note with it: Homo sapiens, IL-6 stimulation, read-out: pSTAT3 IC50. The procedure: For the determination of IL-6-induced STAT3 phosphorylation, HepG2 cells (SIBS) are seeded in 96 well plates at 5.4×10^3 cells per well in Serum Free DMEM media overnight and incubated in the presence or absence of various concentrations of diluted compound for 30 min at 37° C., 5% CO2. Cells were stimulated by adding 10 ng/ml human recombinant IL-6 to each well for 15 minutes at 37° C., 5% CO2. Cells are then fixed in 2% paraformaldehyde for 45 minutes at room temperature and incubated in ice-cold methanol for 30 minutes. After washing in PBS, cells are incubated with rabbit anti-phospho-STAT3 (Y705) (Cell Signaling Technologies, 1:1000 in antibody dilution solution) primary antibody overnight at 4° C. Goat anti-rabbit IgG Alexa 488 (Invitrogen, 1:1,000 dilution in PBS) secondary antibody is added for 90 minutes prior to PBS washes. Cells are counted following incubation in a 7.5 uM propidium iodide, 100 μg/ml RNaseA, PBS solution for 60 minutes in the dark. Plates are read on an Acumen X3 instrument (TPP Labtech).
(§1) Percent inhibition is calculated using the following formula: Inhibition (%)=100−((inhibitor treatment−cell)/(stimulator−cell))×100 […]

Test [3] concerns IL-3-induced STAT5 phosphorylation. Nature of the test: IL-3-induced STAT5 phosphorylation in TF-1 cells. Type of test: cell-based. The note with it: Homo sapiens, IL-3 stimulation, read-out: pSTAT5 IC50. The procedure: For the determination of IL-3-induced STAT5 phosphorylation, TF-1 cells (ATCC) are plated in 96 well plates at 1×10^4 cells per well in 10% FBS RPMI-1640 media at 37° C., 5% CO2 for 3 hours. Cells were incubated in the presence or absence of various concentrations of diluted compound for 30 min at 37° C., 5% CO2. Cells were stimulated by adding 10 ng/ml human recombinant IL-3 to each well for 30 minutes at 37° C., 5% CO2. Cells are then fixed in 2% paraformaldehyde for 45 minutes at room temperature and incubated in ice-cold methanol for 30 minutes. After washing in PBS, cells are incubated with rabbit anti-phospho-STAT5 (Y694) (Cell Signaling Technologies, 1:1000 in antibody dilution solution) primary antibody overnight at 4° C. Goat anti-rabbit IgG Alexa 488 (Invitrogen, 1:1,000 dilution in PBS) secondary antibody is added for 90 minutes prior to PBS washes. Cells are counted following incubation in a 7.5 uM propidium iodide, 100 μg/ml RNaseA, PBS solution for 60 minutes in the dark. Plates are read on an Acumen X3 instrument (TPP Labtech).
as §1

Usually inhibition stands for the percentage by which the read-out fell short of the control. `CN(c1ccc(C(=O)N[C@@H](CO)c2ccccc2)cn1)[C@@H]1CCN(c2ncnc3[nH]ccc23)C1` [Compound 176]: the inhibition at 0.3 µM in test [1] is 50 to 100%.
As a reminder, the IC50 is the concentration that inhibits the measured activity by half. Consider `CN(c1ccc(C(=O)Nc2nccs2)cn1)[C@@H]1CCN(c2ncnc3[nH]ccc23)C1` [Compound 199], for which the inhibition at 0.3 µM in test [1] fell in the range of 50 to 100%. Further, the IC50 in test [2] is 50 nM; in test [3], 7.55 µM.
As for `CN(C(=O)c1ccc(N(C)[C@@H]2CCN(c3ncnc4[nH]ccc34)C2)nc1)[C@@H](CO)c1ccccc1` [Compound 200], in test [1], the inhibition at 0.3 µM lay within 20 to 50%.
